Results published in publication PMC11079024, “Identification of a family of species-selective complex I inhibitors as potential anthelmintics” (Nature Communications, 2024).
Values joined by “and” are separate entries in the source; they are usually repeats but may differ in a detail not shown here. Equal values may be shown once. Read-outs that look alike come from different tables or passages of the source.

Key:
L1 wild-type C. elegans = settings: […], mean of replicates
[1] = molecular target: C. elegans (N2) complex I (NADH:ubiquinone oxidoreductase) (Caenorhabditis elegans, UniProt P24887+Q93873+Q94360); assay: biochemical; type: biochemical
In short: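 Mitochondria from liquid-cultured adults were freeze-thawed thrice before the 15-min DCIP-coupled NADH oxidation read.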

C. elegans (N2) complex I (NADH:ubiquinone oxidoreductase), sequence (Q94360 17-199): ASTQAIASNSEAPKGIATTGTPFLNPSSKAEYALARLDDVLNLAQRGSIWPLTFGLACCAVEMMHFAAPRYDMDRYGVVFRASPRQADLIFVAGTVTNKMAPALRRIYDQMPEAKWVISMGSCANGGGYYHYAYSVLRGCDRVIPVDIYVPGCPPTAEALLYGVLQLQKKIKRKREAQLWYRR
C. elegans (N2) complex I (NADH:ubiquinone oxidoreductase), sequence (P24887 whole entry): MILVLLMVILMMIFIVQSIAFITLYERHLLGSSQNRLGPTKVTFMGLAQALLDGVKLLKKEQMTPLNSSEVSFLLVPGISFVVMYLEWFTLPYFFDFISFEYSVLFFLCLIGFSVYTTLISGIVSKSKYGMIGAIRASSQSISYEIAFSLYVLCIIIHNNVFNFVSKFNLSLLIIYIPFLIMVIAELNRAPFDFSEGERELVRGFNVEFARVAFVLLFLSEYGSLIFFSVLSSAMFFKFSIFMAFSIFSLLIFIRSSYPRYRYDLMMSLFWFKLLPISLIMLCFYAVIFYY
C. elegans (N2) complex I (NADH:ubiquinone oxidoreductase), sequence (Q93873 31-482): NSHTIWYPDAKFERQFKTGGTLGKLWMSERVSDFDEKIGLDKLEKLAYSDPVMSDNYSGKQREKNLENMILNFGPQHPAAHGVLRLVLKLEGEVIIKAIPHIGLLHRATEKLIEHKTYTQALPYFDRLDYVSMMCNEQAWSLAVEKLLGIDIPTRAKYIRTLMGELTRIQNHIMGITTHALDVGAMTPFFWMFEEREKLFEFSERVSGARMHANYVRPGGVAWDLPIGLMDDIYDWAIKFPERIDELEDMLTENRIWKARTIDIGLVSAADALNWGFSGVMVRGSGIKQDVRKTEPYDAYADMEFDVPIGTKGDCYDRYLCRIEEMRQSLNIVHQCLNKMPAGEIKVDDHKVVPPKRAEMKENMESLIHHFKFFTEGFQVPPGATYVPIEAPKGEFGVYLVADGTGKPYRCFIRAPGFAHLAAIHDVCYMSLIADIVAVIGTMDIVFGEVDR

Compound: COC(=O)Nc1nc2ccc(Sc3ccccc3)cc2[nH]1 [fenbendazole, reference compound]
- KCN survival assay value relative to DMSO control, Mean (L1 wild-type C. elegans; dose 0.2 µM): 1.025
- KCN survival assay value relative to DMSO control, Mean (L1 wild-type C. elegans; dose 0.4 µM): 0.947
- KCN survival assay value relative to DMSO control, Mean (L1 wild-type C. elegans; dose 0.8 µM): 0.953
- KCN survival assay value relative to DMSO control, Mean (L1 wild-type C. elegans; dose 3.1 µM): 0.953
- KCN survival assay value relative to DMSO control, Mean (L1 wild-type C. elegans; dose 6.3 µM): 0.899
- KCN survival assay value relative to DMSO control, Mean (L1 wild-type C. elegans; dose 12.5 µM): 0.967
- KCN survival assay value relative to DMSO control, Mean (L1 wild-type C. elegans; dose 25 µM): 0.933
- KCN survival assay value relative to DMSO control, Mean (L1 wild-type C. elegans; dose 50 µM): 0.872
- KCN survival assay value relative to DMSO control, Mean (L1 wild-type C. elegans; dose 100 µM): 0.880
- remaining activity at 0.125 µM ([1]; 0.125 µM, wild-type C. elegans mitochondria, mean of replicates, read-out: percent (%) in vitro complex I activity relative to solvent control): 103%
- percent (%) in vitro complex I activity relative to solvent control ([1]; 0.125 µM, wild-type C. elegans mitochondria, single replicate): 106.082% and 99.397%
- remaining activity at 0.125 µM ([1]; 0.125 µM, wild-type C. elegans mitochondria, single replicate, read-out: percent (%) in vitro complex I activity relative to solvent control): 102%
- remaining activity at 0.313 µM ([1]; 0.313 µM, wild-type C. elegans mitochondria, mean of replicates, read-out: percent (%) in vitro complex I activity relative to solvent control): 101%
- percent (%) in vitro complex I activity relative to solvent control ([1]; 0.313 µM, wild-type C. elegans mitochondria, single replicate): 105.067% and 102.773%
- remaining activity at 0.313 µM ([1]; 0.313 µM, wild-type C. elegans mitochondria, single replicate, read-out: percent (%) in vitro complex I activity relative to solvent control): 101%
- remaining activity at 0.625 µM ([1]; 0.625 µM, wild-type C. elegans mitochondria, mean of replicates, read-out: percent (%) in vitro complex I activity relative to solvent control): 101%
- percent (%) in vitro complex I activity relative to solvent control ([1]; 0.625 µM, wild-type C. elegans mitochondria, single replicate): 108.826% and 84.037% and 107.828% and 101.922%
- remaining activity at 1.5 µM ([1]; 1.5 µM, wild-type C. elegans mitochondria, mean of replicates, read-out: percent (%) in vitro complex I activity relative to solvent control): 101%
- percent (%) in vitro complex I activity relative to solvent control ([1]; 1.5 µM, wild-type C. elegans mitochondria, single replicate): 107.818% and 102.911% and 106.921% and 84.834%
- remaining activity at 3 µM ([1]; 3 µM, wild-type C. elegans mitochondria, mean of replicates, read-out: percent (%) in vitro complex I activity relative to solvent control): 108%
- percent (%) in vitro complex I activity relative to solvent control ([1]; 3 µM, wild-type C. elegans mitochondria, single replicate): 108.394% and 103.450%
- remaining activity at 3 µM ([1]; 3 µM, wild-type C. elegans mitochondria, single replicate, read-out: percent (%) in vitro complex I activity relative to solvent control): 111%
- remaining activity at 15 µM ([1]; 15 µM, wild-type C. elegans mitochondria, mean of replicates, read-out: percent (%) in vitro complex I activity relative to solvent control): 103%
- percent (%) in vitro complex I activity relative to solvent control ([1]; 15 µM, wild-type C. elegans mitochondria, single replicate): 105.414% and 100.145%
- remaining activity at 15 µM ([1]; 15 µM, wild-type C. elegans mitochondria, single replicate, read-out: percent (%) in vitro complex I activity relative to solvent control): 104%
- remaining activity at 37.5 µM ([1]; 37.5 µM, wild-type C. elegans mitochondria, mean of replicates, read-out: percent (%) in vitro complex I activity relative to solvent control): 106%
- percent (%) in vitro complex I activity relative to solvent control ([1]; 37.5 µM, wild-type C. elegans mitochondria, single replicate): 108.185% and 102.298%
- remaining activity at 37.5 µM ([1]; 37.5 µM, wild-type C. elegans mitochondria, single replicate, read-out: percent (%) in vitro complex I activity relative to solvent control): 112%
- remaining activity at 75 µM ([1]; 75 µM, wild-type C. elegans mitochondria, mean of replicates, read-out: percent (%) in vitro complex I activity relative to solvent control): 99.7%
- percent (%) in vitro complex I activity relative to solvent control ([1]; 75 µM, wild-type C. elegans mitochondria, single replicate): 105.576% and 98.309%
- remaining activity at 75 µM ([1]; 75 µM, wild-type C. elegans mitochondria, single replicate, read-out: percent (%) in vitro complex I activity relative to solvent control): 98.1%
- remaining activity at 0.0001 µM ([1]; dose 0.0001 µM, wild-type C. elegans, mean of replicates, read-out: in vitro complex I activity relative to solvent control, Mean): 92.7%
- in vitro complex I activity relative to solvent control, individual replicate ([1]; dose 0.0001 µM, wild-type C. elegans, single replicate): 89.632% and 90.262%
- remaining activity at 0.0001 µM ([1]; dose 0.0001 µM, wild-type C. elegans, single replicate, read-out: in vitro complex I activity relative to solvent control, individual replicate): 94.2%
- remaining activity at 0.0005 µM ([1]; dose 0.0005 µM, wild-type C. elegans, mean of replicates, read-out: in vitro complex I activity relative to solvent control, Mean): 102%
- in vitro complex I activity relative to solvent control, individual replicate ([1]; dose 0.0005 µM, wild-type C. elegans, single replicate): 109.063% and 93.803% and 100.567%
- remaining activity at 0.0005 µM ([1]; dose 0.0005 µM, wild-type C. elegans, single replicate, read-out: in vitro complex I activity relative to solvent control, individual replicate): 104%
- remaining activity at 0.001 µM ([1]; dose 0.001 µM, wild-type C. elegans, mean of replicates, read-out: in vitro complex I activity relative to solvent control, Mean): 107%
- in vitro complex I activity relative to solvent control, individual replicate ([1]; dose 0.001 µM, wild-type C. elegans, single replicate): 112.362% and 106.090% and 103.456%
- remaining activity at 0.001 µM ([1]; dose 0.001 µM, wild-type C. elegans, single replicate, read-out: in vitro complex I activity relative to solvent control, individual replicate): 107%
- remaining activity at 0.0025 µM ([1]; dose 0.0025 µM, wild-type C. elegans, mean of replicates, read-out: in vitro complex I activity relative to solvent control, Mean): 106%
- in vitro complex I activity relative to solvent control, individual replicate ([1]; dose 0.0025 µM, wild-type C. elegans, single replicate): 111.626% and 103.191% and 101.180%
- remaining activity at 0.0025 µM ([1]; dose 0.0025 µM, wild-type C. elegans, single replicate, read-out: in vitro complex I activity relative to solvent control, individual replicate): 107%
- remaining activity at 0.005 µM ([1]; dose 0.005 µM, wild-type C. elegans, mean of replicates, read-out: in vitro complex I activity relative to solvent control, Mean): 106%
- in vitro complex I activity relative to solvent control, individual replicate ([1]; dose 0.005 µM, wild-type C. elegans, single replicate): 110.787% and 104.169% and 105.146%
- remaining activity at 0.005 µM ([1]; dose 0.005 µM, wild-type C. elegans, single replicate, read-out: in vitro complex I activity relative to solvent control, individual replicate): 104%
- remaining activity at 0.013 µM ([1]; dose 0.013 µM, wild-type C. elegans, mean of replicates, read-out: in vitro complex I activity relative to solvent control, Mean): 105%
- in vitro complex I activity relative to solvent control, individual replicate ([1]; dose 0.013 µM, wild-type C. elegans, single replicate): 109.484% and 102.444% and 103.368%
- remaining activity at 0.013 µM ([1]; dose 0.013 µM, wild-type C. elegans, single replicate, read-out: in vitro complex I activity relative to solvent control, individual replicate): 105%
- remaining activity at 0.025 µM ([1]; dose 0.025 µM, wild-type C. elegans, mean of replicates, read-out: in vitro complex I activity relative to solvent control, Mean): 108%
- in vitro complex I activity relative to solvent control, individual replicate ([1]; dose 0.025 µM, wild-type C. elegans, single replicate): 112.068% and 112.677% and 102.223%
- remaining activity at 0.025 µM ([1]; dose 0.025 µM, wild-type C. elegans, single replicate, read-out: in vitro complex I activity relative to solvent control, individual replicate): 106%
- remaining activity at 0.063 µM ([1]; dose 0.063 µM, wild-type C. elegans, mean of replicates, read-out: in vitro complex I activity relative to solvent control, Mean): 102%
- in vitro complex I activity relative to solvent control, individual replicate ([1]; dose 0.063 µM, wild-type C. elegans, single replicate): 106.376% and 104.996% and 99.618%
- remaining activity at 0.063 µM ([1]; dose 0.063 µM, wild-type C. elegans, single replicate, read-out: in vitro complex I activity relative to solvent control, individual replicate): 98%
- remaining activity at 0.125 µM ([1]; dose 0.125 µM, wild-type C. elegans, mean of replicates, read-out: in vitro complex I activity relative to solvent control, Mean): 103%
- in vitro complex I activity relative to solvent control, individual replicate ([1]; dose 0.125 µM, wild-type C. elegans, single replicate): 106.082% and 99.397%
- remaining activity at 0.125 µM ([1]; dose 0.125 µM, wild-type C. elegans, single replicate, read-out: in vitro complex I activity relative to solvent control, individual replicate): 104%
- remaining activity at 0.313 µM ([1]; dose 0.313 µM, wild-type C. elegans, mean of replicates, read-out: in vitro complex I activity relative to solvent control, Mean): 101%
- in vitro complex I activity relative to solvent control, individual replicate ([1]; dose 0.313 µM, wild-type C. elegans, single replicate): 105.067% and 102.773%
- remaining activity at 0.313 µM ([1]; dose 0.313 µM, wild-type C. elegans, single replicate, read-out: in vitro complex I activity relative to solvent control, individual replicate): 96.6%
- remaining activity at 0.625 µM ([1]; dose 0.625 µM, wild-type C. elegans, mean of replicates, read-out: in vitro complex I activity relative to solvent control, Mean): 101%
- in vitro complex I activity relative to solvent control, individual replicate ([1]; dose 0.625 µM, wild-type C. elegans, single replicate): 84.037% and 107.828% and 101.922% and 108.826%
- remaining activity at 1.5 µM ([1]; dose 1.5 µM, wild-type C. elegans, mean of replicates, read-out: in vitro complex I activity relative to solvent control, Mean): 101%
- in vitro complex I activity relative to solvent control, individual replicate ([1]; dose 1.5 µM, wild-type C. elegans, single replicate): 102.911% and 106.921% and 84.834% and 107.818%
- remaining activity at 3 µM ([1]; dose 3 µM, wild-type C. elegans, mean of replicates, read-out: in vitro complex I activity relative to solvent control, Mean): 108%
- in vitro complex I activity relative to solvent control, individual replicate ([1]; dose 3 µM, wild-type C. elegans, single replicate): 108.394% and 103.450%
- remaining activity at 3 µM ([1]; dose 3 µM, wild-type C. elegans, single replicate, read-out: in vitro complex I activity relative to solvent control, individual replicate): 107%
- remaining activity at 15 µM ([1]; dose 15 µM, wild-type C. elegans, mean of replicates, read-out: in vitro complex I activity relative to solvent control, Mean): 103%
- in vitro complex I activity relative to solvent control, individual replicate ([1]; dose 15 µM, wild-type C. elegans, single replicate): 105.414% and 100.145%
- remaining activity at 15 µM ([1]; dose 15 µM, wild-type C. elegans, single replicate, read-out: in vitro complex I activity relative to solvent control, individual replicate): 101%
- remaining activity at 37.5 µM ([1]; dose 37.5 µM, wild-type C. elegans, mean of replicates, read-out: in vitro complex I activity relative to solvent control, Mean): 106%
- in vitro complex I activity relative to solvent control, individual replicate ([1]; dose 37.5 µM, wild-type C. elegans, single replicate): 108.185% and 102.298%
- remaining activity at 37.5 µM ([1]; dose 37.5 µM, wild-type C. elegans, single replicate, read-out: in vitro complex I activity relative to solvent control, individual replicate): 103%
- remaining activity at 75 µM ([1]; dose 75 µM, wild-type C. elegans, mean of replicates, read-out: in vitro complex I activity relative to solvent control, Mean): 99.7%
- in vitro complex I activity relative to solvent control, individual replicate ([1]; dose 75 µM, wild-type C. elegans, single replicate): 105.576% and 98.309%
- remaining activity at 75 µM ([1]; dose 75 µM, wild-type C. elegans, single replicate, read-out: in vitro complex I activity relative to solvent control, individual replicate): 96.8%
